Experimental data from patent US12054746B2, “Method for inducing differentiation of pluripotent stem cells into intestinal epithelial cells” (PUBLIC UNIVERSITY CORPORATION NAGOYA CITY UNIVERSITY, priority 2018, dated 2024).
Read-outs that look alike come from different tables or passages of the source.

Key:
[1] = in vitro; conditions: human
Experimental: (§1) Human iPS cells (FF-1) were treated with a serum-free medium containing 100 ng/mL activin A for 24 hours to initiate differentiation. […] Thereafter, the cells were cultured in Advanced DMEM/F-12 containing 2% FBS, 1% GlutaMax, 100 units/mL penicillin G, 100 μg/mL streptomycin sulfate, and 250 ng/mL FGF2 for 96 hours to differentiate into small intestine stem cells. The small intestine stem cell-like cells after the treatment with activin A and FGF2 were detached with Aecutase and seeded on GFR Matrigel which was diluted 30-fold with human iPS medium in advance. After seeding, the cells were cultured for 19 to 23 days in Advanced DMEM/F-12 containing 2% FBS, 0.1 mM NEAA, 2 mM L-Glu, 100 units/mL penicillin G, 100 μg/mL streptomycin sulfate, 2% B27 supplement, 1% N2 supplement, 1% HepExtend supplement, 20 ng/mL EGF, and 30 μM Forskolin. From 12 to 16 days before the end of differentiation, differentiation into small intestinal epithelial cells was induced was by adding PD98059 to 20 μM, 5-aza-2′-deoxycytidine (5-aza-2′-dC) to 5 μM, and A-83-01 to 0.5 μM.
(§2) HESS (pH 6.5) was added to a chamber on the apical side of human iPS cell-derived small intestinal epithelial cells and Caco-2 cells seeded on Cell culture insert, HBSS (pH 7.4) was added to a chamber on the basal side, and pre-incubated at 37° C. for 60 minutes. […] A sample was collected from the receiver chamber every 15 minutes. The unchanged substance was measured using UPLC-MS/MS. Fa·Fg in humans was referred from, previous reports (References 1 to 6 below). • Reference 1: Takenaka T, Harada N, Kuze J, Chiba M, Iwao T, Matsunaga T. Human small intestinal epithelial cells differentiated from adult intestinal stem cells as a novel system for predicting oral drug absorption in humans. Drug Metab Dispos. […] Expert Opin Drug Metab Toxicol.

[2] = in vitro; conditions: human, Caco-2
Experimental: as §2

[3] = cited from earlier work
[4] = tested on: human iPS cell-derived small intestinal epithelial cells; assay: in vitro
Experimental: as §1, §2

[5] = tested on: Caco-2 cells; assay: in vitro
Experimental: as §2

[6] = tested on: human iPS cells; assay: Marker gene expression (real-time RT-PCR) after induction of differentiation of human iPS cells into intestinal epithelial cells; format: cell-based
Experimental: Induction of differentiation of human iPS cells into intestinal epithelial cells was started in a state where undifferentiated colonies of the human iPS cells accounted for about 70% of the culture dish. […] was induced to differentiate into endoderm by culturing for two days in Roswell Park Memorial Institute (RPMI)+Glutamax medium containing 0.5% FBS, 100 ng/mL activin A, 100 units/mL penicillin G, and 100 μg/mL streptomycin and then culturing for one day in RPMI+Glutamax medium, containing 2% FBS, 100 ng/mL activin A, 100 units/ml penicillin G, and 100 μg/mL streptomycin. Then, the cells were cultured in DMEM/F12 containing 2% FBS, 1% Glutamax, and 250 ng/mL FGF2 for 4 days to induce differentiation into intestinal stem cells. After this treatment, Y-27632 (Rho-binding kinase inhibitor) was added so that the concentration was 10 μmol/L, and the cells treated at 37° C. for 60 minutes in a CO2 incubator under the condition of 5% CO2/95% air were treated with actase for detaching. The detached cells were seeded on a 24-well cell culture plate coated with Matrigel which was diluted 30-fold with a human iPS cell culture medium and from which growth factors was removed. […]

[7] = tested on: intestinal epithelial cell-like cells derived from human iPS cells; assay: Drug metabolism experiment (CYP3A4 and UGT activity) in intestinal epithelial cell-like cells derived from human iPS cells; format: cell-based; conditions: experiment 4, FF-1, Forskolin instead of 8-Br-cAMP from day 12 (FIG. 10)
Experimental: In experiment 3, the FF-1 strain was cultured for 5 days (day 0 to 5) to induce differentiation into endoderm, 4 days (day 5 to 9) to induce differentiation into intestinal stem cells, and 18 days (day 10 to 28) to induce differentiation into intestinal epithelial cells. In experiment 4, the FF-1 strain was cultured for 7 days (day 0 to 7) to induce differentiation into endoderm, 4 days (day 7 to day 11) to induce differentiation into intestinal stem cells, and 18 days (day 12 to day 30) to induce differentiation into intestinal epithelial cells. […]
After completing the differentiation induction, the differentiated cells were cultured at 37° C. in a culture medium (DMEM/F12 containing 1% Glutamax, 1% NEAA, 1% N2 supplement, 100 units/mL penicillin G, 100 μg/mL streptomycin, and 20 ng/mL EGF) containing 5 μmol/L midazolam and 10 μmol/L 7-hydroxycoumarin, and the culture medium was sampled after 24 hours (experiments 3 and 4) or 2 hours (experiment 5). The metabolic activity was calculated from the amount of 1-hydroxymidazolam or 7-hydroxycoumarin glucuronide in the culture medium, which was measured using a liquid chromatography-mass spectrometer (LC-MS/MS). After completing the metabolic experiment, protein quantification was performed, and the metabolic activity was corrected with the amount of protein.

[8] = in humans, from References 1 to 6

CCN1CCCC1CNC(=O)c1cc(S(N)(=O)=O)ccc1OC (stereo not shown) [Sulpiride, sulpiride]
Papp A→B at 60 min [1]: 1.45 ×10⁻⁶ cm/s

CCOC(=O)[C@H](CCc1ccccc1)N[C@@H](C)C(=O)N1CCC[C@H]1C(=O)O [Enalapril, enalapril]
Papp A→B at 60 min [1]: 1.93 ×10⁻⁶ cm/s | Papp A→B at 60 min [2]: 0.19 ×10⁻⁶ cm/s | Fa · Fg/100 [3, 8]: 0.6

C=CC[C@@H]1/C=C(\C)C[C@H](C)C[C@H](OC)[C@H]2O[C@@](O)(C(=O)C(=O)N3CCCC[C@H]3C(=O)O[C@H](/C(C)=C/[C@@H]3CC[C@@H](O)[C@H](OC)C3)[C@H](C)[C@@H](O)CC1=O)[C@H](C)C[C@@H]2OC [Tacrolimus, tacrolimus]
Papp A→B at 60 min [1]: 14.3 ×10⁻⁶ cm/s | Papp A→B at 60 min [2]: 12.3 ×10⁻⁶ cm/s | Fa · Fg/100 [3, 8]: 0.136

lucifer yellow
Papp A→B [4]: 0.3 ×10⁻⁶ cm/s | Papp A→B [5]: 0.06 ×10⁻⁶ cm/s | Fa · Fg/100 ([3]; in vivo): 0

Cn1c(=O)c2c(ncn2C)n(C)c1=O [Caffeine, caffeine]
Papp A→B at 60 min [1]: 52.4 ×10⁻⁶ cm/s

C=C[C@@]1(C)CC(=O)[C@]2(O)[C@@]3(C)[C@@H](O)CCC(C)(C)[C@@H]3[C@H](O)[C@H](OC(C)=O)[C@@]2(C)O1 [Forskolin]
effect on the expressions of CYP3A4 and ABCB1/MDR1 ([6]; experiment 1, Windy, compared with 8-Br-cAMP): drastically exceeded that of 8-Br-cAMP | expression level of CYP3A4 and SGLT1 ([6]; experiment 2, Windy, Forskolin alone day 8 to 26, vs 8-Br-cAMP and IBMX in combination (FIG. 5)): significantly increased | CYP3A4 activity [7]: further significant increase

CN(C)C(=N)N=C(N)N [Metformin, metformin]
Papp A→B at 60 min [1]: 2.43 ×10⁻⁶ cm/s | Papp A→B at 60 min [2]: 0.52 ×10⁻⁶ cm/s | Fa · Fg/100 [3, 8]: 0.71

NC(=O)c1ncn([C@@H]2O[C@H](CO)[C@@H](O)[C@H]2O)n1 [Ribavirin, ribavirin]
Papp A→B at 60 min [1]: 3.3 ×10⁻⁶ cm/s | Papp A→B at 60 min [2]: 0.32 ×10⁻⁶ cm/s | Fa · Fg/100 [3, 8]: 0.85

CCCC(=O)Nc1ccc(OCC(O)CNC(C)C)c(C(C)=O)c1 (stereo not shown) [Acebutolol, acebutolol]
Papp A→B at 60 min [1]: 2.3 ×10⁻⁶ cm/s | Papp A→B at 60 min [2]: 0.35 ×10⁻⁶ cm/s

Cc1cc(=O)n(-c2ccccc2)n1C [Antipvrine, antipyrine]
Papp A→B at 60 min [1]: 55.6 ×10⁻⁶ cm/s

Cc1ncc2n1-c1ccc(Cl)cc1C(c1ccccc1F)=NC2 [Midazolam, midazolam]
Papp A→B [1]: 48.3 ×10⁻⁶ cm/s | Papp A→B [2]: 38.7 ×10⁻⁶ cm/s | Fa · Fg/100 [3, 8]: 0.369

NS(=O)(=O)c1cc2c(cc1Cl)NCNS2(=O)=O [Hydrochlorothiazide, hydrochlorothiazide]
Papp A→B at 60 min [1]: 4.4 ×10⁻⁶ cm/s | Papp A→B at 60 min [2]: 2.44 ×10⁻⁶ cm/s | Fa · Fg/100 [3, 8]: 0.67

CC[C@H]1OC(=O)[C@H](C)[C@@H](O[C@H]2C[C@@](C)(OC)[C@@H](O)[C@H](C)O2)[C@H](C)[C@@H](O[C@@H]2O[C@H](C)C[C@H](N(C)C)[C@H]2O)[C@](C)(O)C[C@@H](C)C(=O)[C@H](C)[C@@H](O)[C@]1(C)O [Erythromycin, erythromycin]
Papp A→B at 60 min [1]: 1.24 ×10⁻⁶ cm/s | Papp A→B at 60 min [2]: 0.45 ×10⁻⁶ cm/s
